Source: patent US20230287003A1, “BCL6 INHIBITORS” (Cancer Research Technology Limited, priority 2018, published 2023)
Like-named read-outs stand apart in the source and are kept apart here.

Assays:
[1] = biological target: human BCL6 BTB domain (Trx-6×His-BCL6) / BCOR-AF633 peptide (Homo sapiens (Human), UniProt P41182); assay: HTRF assay; assay type: binding
Procedure: The % inhibition at each concentration was calculated by normalising FRET ratio to the appropriate high (DMSO with all reagents) and low (DMSO without BCL6) controls.

[2] = biological target: BCL6-NCOR2(SMRT) corepressor protein-protein interaction (Homo sapiens (Human), UniProt P41182); assay: NanoBRET cell assay; assay type: cell-based; details: for IC50: read-out: NanoBRET cell avg pIC50 (converted); for NanoBRET cell avg pIC50: HEK293T cells co-transfected with BCL6-nanoLuc and NCOR2-HaloTag, 6 hr incubation
Source text: At 20 hr post-transfection, cells were collected, washed with PBS, and exchanged into media containing phenol red-free OptiMEM+4% FBS (Life Technology).

[3] = 1 nM Trx-6×His-BCL6, 300 nM BCOR-AF633 peptide, 2 hours incubation

## Cn1c(=O)c2c(c3cc(Nc4ccnc(Cl)c4C#N)ccc31)NC(C)(C)CCO2 [Example 1f, 2-chloro-4-((2,2,7-trimethyl-6-oxo-1,2,3,4,6,7-hexahydro-[1,4]oxazepino[2,3-c]quinolin-10-yl)amino)nicotinonitrile]
[1]; [3]
  HTRF avg pIC50 (1 nM): 6.24
[2]
  IC50: 5130 nM

## C[C@@H]1CN(c2ncc(Cl)c(Nc3ccc4c(c3)c3c(c(=O)n4C)OCC[C@H](C)N3)n2)C[C@H](C)O1 [Example 5g, (S)-10-((5-chloro-2-((2S,6R)-2,6-dimethylmorpholino)pyrimidin-4-yl)amino)-2,7-dimethyl-1,2,3,4-tetrahydro-[1,4]oxazepino[2,3-c]quinolin-6(7H)-one]
[1]; [3]
  HTRF avg pIC50 (1 nM): 6.88
[2]
  IC50: 2040 nM

## Cn1c(=O)c2c(c3cc(Nc4ccnc(Cl)c4Cl)ccc31)N[C@@H](C1CC1)CCO2 [Example 4c]
[1]; [3]
  HTRF avg pIC50 (1 nM): 6.85
[2]
  IC50: 708 nM

## C[C@H]1CCOc2c(c3cc(Nc4nc(-n5ccc(C(F)(F)F)n5)ncc4Cl)ccc3n(C)c2=O)N1 [Example 5c, (S)-10-((5-chloro-2-(3-(trifluoromethyl)-1H-pyrazol-1-yl)pyrimidin-4-yl)amino)-2,7-dimethyl-1,2,3,4-tetrahydro-[1,4]oxazepino[2,3-c]quinolin-6(7H)-one]
[1]; [3]
  HTRF avg pIC50 (1 nM): 6.43
[2]
  IC50: 4680 nM

## Cn1c(=O)c2c(c3cc(Nc4nc(N5C6CCC5CS(=O)(=O)C6)ncc4Cl)ccc31)N[C@@H](C1CC1)C(F)(F)CO2 [Example 12w, (S)-10-((5-chloro-2-(3,3-dioxido-3-thia-8-azabicyclo[3.2.1]octan-8-yl)pyrimidin-4-yl)amino)-2-cyclopropyl-3,3-difluoro-7-methyl-1,2,3,4-tetrahydro-[1,4]oxazepino[2,3-c]quinolin-6(7H)-one]
[1]; [3]
  HTRF avg pIC50 (1 nM): 8.73
[2]
  IC50: 11 nM

## CN1CC2CCC(C1)N2c1ncc(Cl)c(Nc2ccc3c(c2)c2c(c(=O)n3C)OCC[C@H](C3CC3)N2)n1 [Example 12i, (R)-10-((5-chloro-2-(3-methyl-3,8-diazabicyclo[3.2.1]octan-8-yl)pyrimidin-4-yl)amino)-2-cyclopropyl-7-methyl-1,2,3,4-tetrahydro-[1,4]oxazepino[2,3-c]quinolin-6(7H)-one]
[1]; [3]
  HTRF avg pIC50 (1 nM): 7.81
[2]
  IC50: 148 nM

## O=c1c2c(c3cc(Nc4nc(N5C6CCC5COC6)ncc4Cl)ccc3n1CC1CC1)N[C@@H](C1CC1)CCO2 [Example 5r, (R)-10-((2-(3-oxa-8-azabicyclo[3.2.1]octan-8-yl)-5-chloropyrimidin-4-yl)amino)-2-cyclopropyl-7-(cyclopropylmethyl)-1,2,3,4-tetrahydro-[1,4]oxazepino[2,3-c]quinolin-6(7H)-one]
[1]; [3]
  HTRF avg pIC50 (1 nM): 7.41
[2]
  IC50: 43.7 nM

## C[C@H]1CCOc2c(c3cc(Nc4nc(N5CCC(C(=O)N(C)C)CC5)ncc4Cl)ccc3n(C)c2=O)N1 [Example 5d, (S)-1-(5-chloro-4-((2,7-dimethyl-6-oxo-1,2,3,4,6,7-hexahydro-[1,4]oxazepino[2,3-c]quinolin-10-yl)amino)pyrimidin-2-yl)-N,N-dimethylpiperidine-4-carboxamide]
[1]; [3]
  HTRF avg pIC50 (1 nM): 6.83
[2]
  IC50: 1410 nM

## COCC1(C)CCOc2c(c3cc(Nc4ccnc(Cl)c4C#N)ccc3n(C)c2=O)N1 (stereo not shown) [Example 1g, 2-chloro-4-((2-(methoxymethyl)-2,7-dimethyl-6-oxo-1,2,3,4,6,7-hexahydro-[1,4]oxazepino[2,3-c]quinolin-10-yl)amino)nicotinonitrile]
[1]; [3]
  HTRF avg pIC50 (1 nM): 6.30
[2]
  IC50: 2510 nM

## Cn1c(=O)c2c(c3cc(Nc4ccnc(Cl)c4C#N)ccc31)N[C@@H](C1CC1)CCS2(=O)=O [Example 1u, (R)-2-chloro-4-((2-cyclopropyl-7-methyl-5,5-dioxido-6-oxo-1,2,3,4,6,7-hexahydro-[1,4]thiazepino[2,3-c]quinolin-10-yl)amino)nicotinonitrile]
[1]; [3]
  HTRF avg pIC50 (1 nM): 8.15
[2]
  IC50: 3090 nM

## CN1CCN(c2ncc(Cl)c(Nc3ccc4c(c3)c3c(c(=O)n4C)OCC(F)(F)[C@H](C4CC4)N3)n2)CC1=O [Example 12a, (S)-10-((5-chloro-2-(4-methyl-3-oxopiperazin-1-yl)pyrimidin-4-yl)amino)-2-cyclopropyl-3,3-difluoro-7-methyl-1,2,3,4-tetrahydro-[1,4]oxazepino[2,3-c]quinolin-6(7H)-one]
[1]; [3]
  HTRF avg pIC50 (1 nM): 8.82
[2]
  IC50: 18.6 nM

## Cn1c(=O)c2c(c3cc(Nc4nc(N5CC6CCC(C5)O6)ncc4Cl)ccc31)N[C@@H](C1CC1)C(F)(F)CO2 [Example 12u, (S)-10-((2-(8-oxa-3-azabicyclo[3.2.1]octan-3-yl)-5-chloropyrimidin-4-yl)amino)-2-cyclopropyl-3,3-difluoro-7-methyl-1,2,3,4-tetrahydro-[1,4]oxazepino[2,3-c]quinolin-6(7H)-one]
[1]; HTRF avg pIC50 (1 nM), 1 nM Trx-6×His-BCL6, 300 nM BCOR-AF633 peptide, 2 hours incubation
  IC50: 2.63 nM
[2]
  NanoBRET cell avg pIC50: 7.83

## O=c1c2c(c3cc(Nc4nc(N5C6COCC5CC(O)C6)ncc4Cl)ccc3n1CC1CC(F)(F)C1)N[C@@H](C1CC1)CCO2 (stereo partly drawn) [Example 5u, (R)-10-((5-chloro-2-((1R,5S,7S)-7-hydroxy-3-oxa-9-azabicyclo[3.3.1]nonan-9-yl)pyrimidin-4-yl)amino)-2-cyclopropyl-7-((3,3-difluorocyclobutyl)methyl)-1,2,3,4-tetrahydro-[1,4]oxazepino[2,3-c]quinolin-6(7H)-one]
[1]; [3]
  HTRF avg pIC50 (1 nM): 8.08
[2]
  IC50: 28.8 nM

## CN1CCN(c2ncc(Cl)c(Nc3ccc4c(c3)c3c(c(=O)n4C)OCC[C@H](C4CC4)N3)n2)CC1=O [Example 12b, (R)-10-((5-chloro-2-(4-methyl-3-oxopiperazin-1-yl)pyrimidin-4-yl)amino)-2-cyclopropyl-7-methyl-1,2,3,4-tetrahydro-[1,4]oxazepino[2,3-c]quinolin-6(7H)-one]
[1]; [3]
  HTRF avg pIC50 (1 nM): 7.80
[2]
  IC50: 60.3 nM

## Cn1c(=O)c2c(c3cc(Nc4ccnc(Cl)c4C#N)ccc31)N[C@@H](C1CC1)C(F)(F)CO2 [Example 1v, (S)-2-chloro-4-((2-cyclopropyl-3,3-difluoro-7-methyl-6-oxo-1,2,3,4,6,7-hexahydro-[1,4]oxazepino[2,3-c]quinolin-10-yl)amino)nicotinonitrile]
[1]; [3]
  HTRF avg pIC50 (1 nM): 8.58
[2]
  NanoBRET cell avg pIC50: 7.83

## C[C@@H]1C[C@H](O)CN(c2ncc(Cl)c(Nc3ccc4c(c3)c3c(c(=O)n4C)OCC(F)(F)[C@H](C4CC4)N3)n2)C1 (single isomer, unassigned) [Example 13e, (S)-10-((5-chloro-2-((3S,5R)-3-hydroxy-5-methylpiperidin-1-yl)pyrimidin-4-yl)amino)-2-cyclopropyl-3,3-difluoro-7-methyl-1,2,3,4-tetrahydro-[1,4]oxazepino[2,3-c]quinolin-6(7H)-one or (S)-10-((5-chloro-2-((3R,5S)-3-hydroxy-5-methylpiperidin-1-yl)pyrimidin-4-yl)amino)-2-cyclopropyl-3,3-difluoro-7-methyl-1,2,3,4-tetrahydro-[1,4]oxazepino[2,3-c]quinolin-6(7H)-one]
[1]; [3]
  HTRF avg pIC50 (1 nM): 8.60

## Cn1c(=O)c2c(c3cc(Nc4ccnc(Cl)c4C#N)ccc31)NC(C1CCC1)CO2 (stereo not shown) [Example 1n, 2-chloro-4-((2-cyclobutyl-6-methyl-5-oxo-2,3,5,6-tetrahydro-1H-[1,4]oxazino[2,3-c]quinolin-9-yl)amino)nicotinonitrile]
[1]; [3]
  HTRF avg pIC50 (1 nM): 5.70

## Cn1c(=O)c2c(c3cc(Nc4nc(N5CCC(F)(F)CC5)ncc4Cl)ccc31)N[C@@H](C1CC1)C(F)(F)CO2 [Example 12n, (S)-10-((5-chloro-2-(4,4-difluoropiperidin-1-yl)pyrimidin-4-yl)amino)-2-cyclopropyl-3,3-difluoro-7-methyl-1,2,3,4-tetrahydro-[1,4]oxazepino[2,3-c]quinolin-6(7H)-one]
[1]; [3]
  HTRF avg pIC50 (1 nM): 7.94

## (S)-10-((5-chloro-2-((1S,5R)-3-methyl-2-oxo-3,8- diazabicyclo[3.2.1]octan-8-yl)pyrimidin-4-yl)amino)-2-cyclopropyl- 3,3-difluoro-7-methyl-1,2,3,4-tetrahydro-[1,4]oxazepino[2,3-c]quinolin- 6(7H)-one and (S)-10-((5-chloro-2-((1R,5S)-3-methyl-2-oxo-3,8- diazabicyclo[3.2.1]octan-8-yl)pyrimidin-4-yl)amino)-2-cyclopropyl- 3,3-difluoro-7-methyl-1,2,3,4-tetrahydro- [1,4]oxazepino[2,3-c]quinolin-6(7H)-one [Example 13b]
[1]; [3]
  HTRF avg pIC50 (1 nM): 8.59

## Cn1c(=O)c2c(c3cc(Nc4ccnc(Cl)c4C#N)ccc31)NC(C)(C)COC2=O [2-chloro-4-((2,2,7-trimethyl-5,6-dioxo-1,2,3,5,6,7-hexahydro-[1,4]oxazepino[6,5-c]quinolin-10-yl)amino)nicotinonitrile]
[1]; read-out: IC50 in the HTRF assay
  IC50: > 2500 nM

## (S)-10-((5-chloro-2-((3R,5S)-3-hydroxy-5- methylpiperidin-1-yl)pyrimidin-4-yl)amino)-2,7-dimethyl-1,2,3,4- tetrahydro-[1,4]oxazepino[2,3-c]quinolin-6(7H)-one or (S)-10-((5- chloro-2-((3S,5R)-3-hydroxy-5-methylpiperidin-1-yl)pyrimidin-4- yl)amino)-2,7-dimethyl-1,2,3,4-tetrahydro- [1,4]oxazepino[2,3-c]quinolin-6(7H)-one [Example 12k]
[1]; [3]
  HTRF avg pIC50 (1 nM): 7.04

## (S)-10-((5-chloro-2-((R)-4,4-difluoro-3- (hydroxymethyl)piperidin-1-yl)pyrimidin-4-yl)amino)-2-cyclopropyl- 3,3-difluoro-7-methyl-1,2,3,4-tetrahydro-[1,4]oxazepino[2,3-c]quinolin- 6(7H)-one or (S)-10-((5-chloro-2-((S)-4,4-difluoro-3- (hydroxymethyl)piperidin-1-yl)pyrimidin-4-yl)amino)-2-cyclopropyl- 3,3-difluoro-7-methyl-1,2,3,4-tetrahydro-[1,4]oxazepino[2,3-c]quinolin- 6(7H)-one [Example 12p]
[1]; [3]
  HTRF avg pIC50 (1 nM): 8.34
